Experimental data as given in US8815811B2, “Peptides and methods for their preparation and use” (Eli Lilly and Company, priority 2010, dated 2014).
Where no end group is shown, it is not given here. [ ]: non-standard residue; d: D form. 1Nal = N[C@@H](Cc1cccc2ccccc12)C(=O)O; Aib = CC(C)(N)C(=O)O

Assays:
[1] = system: diet-induced obese Long Evans rats; test: Effects on food intake, body weight, body composition and plasma lipids in DIO Long Evans rats; assay type: in vivo
Method: Four to five months old male diet-induced obese Long Evans rats are used. Animals are individually housed in a temperature-controlled (24° C.) facility with a 12 hour light/dark cycle (lights on 22:00), and have free access to food (diet TD95217) and water. Animals are acclimated to the facility for at least 2 weeks. On day 0, body composition is determined by QNMR and rats are randomized to respective groups (n=6/group) based on body weight, % fat, and % lean mass. Compound is administered by subcutaneous injection on days 1, 4, 8, 11, and 15. […] After CO2 euthanasia, blood samples are taken by cardiac stick for analysis of exposure determination.

[2] = system: ovariectomized (OvX) Sprague Dawley rats; test: Skeletal effects in ovariectomized (OvX) Sprague Dawley rats; assay type: in vivo
Method: Example 4 was evaluated in 6 months old, ovariectomized (OvX; see Endocrinology 144: 2008-2015), Sprague Dawley rats. Doses of 0, 2.9, 9.7, or 29 nmol/kg were given to the rats as daily subcutaneous injections starting 9 days post surgery. […] It should be noted that loss in body weight (8% in this study) can directly affect bone mass. Bone strength is load dependent and losing weight results in a lower load on bones that carry weight and as a consequence less impact is observed on skeletal parameters of bones that carry weight, i.e. the femur cortical bone. Statistical significances were evaluated by a one-way ANOVA followed by a Dunnett's test.

[3] = system: Normal male Wistar rats; test: Intravenous glucose tolerance test in normal rats; assay type: in vivo; settings: IVGTT; for insulin AUC: 0 to 30 min
Method: Effects on Blood Glucose Excursion During an Intravenous Glucose Tolerance Test in Normal Rats
Normal male Wistar rats (225-250 g) are used in the study. Animals are randomized into groups based on fed body weight and blood glucose. Animals are injected with vehicle or peptide analog (dose 3-400 μg peptide content/kg) 16 hours prior to the start of the test. Food is removed at the time of injection. Prior to the assay the animals are put under anesthesia, Phenobarbital 65 mg/kg i.p., and two catheters are inserted, one in the jugular vein and the other in the carotid artery. At time 0, animals are given 0.5 g glucose/kg through the venous catheter. Blood is collected from the carotid artery at time 0 (pre glucose), 2, 4, 6, 10, 20 and 30 minutes after glucose challenge. Glucose concentration is measured by glucometer. Insulin is measured by Mesoscale®. Efficacy is measured as the increase in total area under the insulin curve (=integrated plasma insulin values from t+0 to 30 min) as well as the area under the glucose curve which is a measure of the glucose excursion following the intravenous glucose challenge.

[4] = system: DIO mice; test: Oral glucose tolerance test after 2-week treatment in DIO mice; assay type: in vivo
Method: Fifty-six hours after the last injection of compound in the DIO study above the animals were subjected to an oral glucose tolerance test. In short, mice were fasted for 16 hours prior to the start of the glucose tolerance test. At time 0, animals are given 2 g/kg dextrose by oral gavage. Blood is collected by tail bleeding taken 0, 15, 30, 60 and 120 minutes after glucose challenge. Glucose concentration is measured by glucometer.

[5] = target: T1, hGlucR (Homo sapiens, UniProt P47871); test: Glucagon receptor (hGlucR) binding assay (SPA, I-125 glucagon); settings: hGlucR 293HEK membranes
T1 construct: expressed in transfected cells; host or cells: 293HEK, Hygromycin-selected, phD expression plasmid
Method: The hGlucR cDNA is subcloned into the expression plasmid phD (Trans-activated expression of fully gamma-carboxylated recombinant human protein C, an antithrombotic factor. Grinnell, B. W., et. al., Bio/Technology 5: 1189-1192 (1987)). This plasmid DNA is transfected into 293HEK cells and selected with 200 μg/mL Hygromycin.
Crude plasma membranes are prepared using cells from suspension culture. The cells are lysed on ice in hypotonic buffer containing 25 mM Tris HCl, pH 7.5, 1 mM MgCl2, DNAse1, 20 μ/mL, and Roche Complete™ Inhibitors without EDTA. The cell suspension is homogenized with a glass dounce homogenizer using a Teflon® pestle for 25 strokes. The homogenate is centrifuged at 4° C. at 1800×g for 15 minutes. The supernatant is collected and the pellet is resuspended in hypotonic buffer and rehomogenized. The mixture is centrifuged at 1800×g for 15 minutes. The second supernatant is combined with the first supernatant. […]
The binding buffer contains 25 mM 4-(2-hydroxyethyl)-1-piperazineethanesulfonic acid (HEPES), pH 7.4, 2.5 mM CaCl2, 1 mM MgCl2, 0.1% fatty acid free BSA, 0.003% Tween20, and Roche Complete™ Inhibitors without EDTA. […] Plates are read with a PerkinElmer Life and Analytical Sciences Trilux MicroBeta® scintillation counter after 12 hours of settling time at room temperature.
Results are calculated as a percent of specific I-125-glucagon binding in the presence of compound. […]

[6] = OvX rats, 2.9 nmol/kg daily sc, 35 days
[7] = OvX rats, 9.7 nmol/kg daily sc, 35 days
[8] = OvX rats, 29 nmol/kg daily sc, 35 days

T1 sequence (P47871 26-477): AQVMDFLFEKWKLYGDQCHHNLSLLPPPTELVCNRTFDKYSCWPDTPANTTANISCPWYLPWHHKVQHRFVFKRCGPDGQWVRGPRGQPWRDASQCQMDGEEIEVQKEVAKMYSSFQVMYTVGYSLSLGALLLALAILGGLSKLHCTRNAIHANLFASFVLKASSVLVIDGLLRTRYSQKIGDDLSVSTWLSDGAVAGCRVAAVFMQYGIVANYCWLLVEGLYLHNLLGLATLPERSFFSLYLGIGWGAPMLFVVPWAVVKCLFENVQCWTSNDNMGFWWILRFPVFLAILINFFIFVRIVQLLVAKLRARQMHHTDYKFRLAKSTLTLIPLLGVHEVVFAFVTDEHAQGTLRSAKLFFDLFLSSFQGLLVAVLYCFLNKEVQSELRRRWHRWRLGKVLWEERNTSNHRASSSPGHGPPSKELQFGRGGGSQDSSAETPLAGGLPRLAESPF

## Aib^2, Aib^13, Nal^22, Aib^29, Cys^43(PEG20K), Cys^44 (PEG20K)-GIP (Y[Aib]EGTFTSDYSI[Aib]LDKIAQRA[1Nal]VQWLIA[Aib]KGKKQEWKHQITQC(PEG 20 kDa)C(PEG 20 kDa)-NH2) [Example 4]
[1]; 10 nmol/Kg
  total cholesterol (plasma): 110 mg/dL
  triglycerides (plasma): 488.7 mg/dL
[1]; 30 nmol/Kg
  free fatty acids (plasma): 0.82 mEq/L
  total cholesterol (plasma): 104 mg/dL
  triglycerides (plasma): 212.2 mg/dL
[1]; 30 nmol/Kg over 16 days
  fat mass reduced: 1.8%
  lean mass increased: 0.4%
[1]; 100 nmol/Kg over 16 days
  fat mass reduced: 3.2%
  lean mass increased: 1.8%
[1]; over 16 days
  changes in body weight and body composition compared to vehicle-treated DIO rats: increasing the percentage of lean mass and decreasing the percentage of fat mass
[1]; versus vehicle
  amount of free fatty acids: increased
  amounts of plasma lipids, including triglycerides and total cholesterol: lowered
[2]; [6]
  Bone mineral density (BMD) of lumbar vertebrae, MEAN: 557 mg/mL
  Changes in bone mineral content (BMC) of lumbar vertebrae, Bone mineral density (mg), MEAN: 9.75 mg
[2]; [7]
  Bone mineral density (BMD) of lumbar vertebrae, MEAN: 558 mg/mL
  Changes in bone mineral content (BMC) of lumbar vertebrae, Bone mineral density (mg), MEAN: 9.98 mg
[2]; [8]
  Bone mineral density (BMD) of lumbar vertebrae, MEAN: 588 mg/mL
  Changes in bone mineral content (BMC) of lumbar vertebrae, Bone mineral density (mg), MEAN: 10.49 mg
[2]; OvX rats, 2.9-29 nmol/kg daily, 35 days, dose responsive
  reduction of food consumption and body weight: up to 8%
[2]; OvX rats, 35 days
  OvX induced loss in bone mineral content and bone mineral density in lumbar vertebrae: dose-dependently prevented
  adverse effect on bone mineral density or bone mineral content in the femur and lumbar vertebra: did not adversely affect
  effect in mid femur cortical bone (BMC, BMD): no effect
  fat mass: decreased fat mass
  lean mass: no change
  non-fasted serum glucose and triglycerides: decreased
[2]; summary of Tables 8 and 9
  BMC and BMD in OvX rats: improves
[3]
  insulin AUC and glucose AUC compared to vehicle-treated rats: increased insulin AUC and decreased glucose AUC
[3]; 50 μg/Kg
  glucose AUC: 7730 mg·min/dL
[3]; 50 μg/Kg 16 hours before test
  insulin AUC: 150 ng·min/mL
[3]; 200 μg/Kg
  glucose AUC: 7420 mg·min/dL
[3]; 200 μg/Kg 16 hours before test
  insulin AUC: 161 ng·min/mL
[4]; DIO mice, summary of Tables 7a and 7b
  glucose excursion following an oral glucose load: significantly reduced
[4]; Table 7a, OGTT 2 g/kg dextrose, 56 h after last injection, 10 nmol/Kg
  Glucose AUC, MEAN: 11725 mg·min/dL
[4]; Table 7a, OGTT, 30 nmol/Kg
  Glucose AUC, MEAN: 10907 mg·min/dL
[4]; Table 7b, OGTT, 10 nmol/Kg
  Glucose AUC, MEAN: 13719 mg·min/dL
[5]
  Ki: > 7.49 µM
